Measured values as given in ChEMBL document CHEMBL4359843, “Linear and Rationally Designed Stapled Peptides Abrogate TLR4 Pathway and Relieve Inflammatory Symptoms in Rheumatoid Arthritis Rat Model” (J Med Chem, 2019).
Blank lines part the entries; values can stand above or below the compound they belong to. Active and inactive are the calls of the source. The rule behind the calls is not given here. Where a SMILES comes first, the peptide text is derived from it. Bridges are numbered along the chain shown (N, C = ends).

Legend:
[1] = target: TLR7 and TLR8 (Homo sapiens) (UniProt Q9NYK1+Q9NR97); test: Antagonist activity at TLR7/8 in human THP1 cells assessed as reduction in R848-induced IL6 secretion at 50 uM after 24 hrs by ELISA; assay type: cell-based
Toll-like receptor 4 [2] = target: T1, Toll-like receptor 4 (Homo sapiens, UniProt O00206); test: Antagonist activity at TLR4 in human THP1 cells assessed as reduction in LPS-induced p38 phosphorylation at 50 uM after 15 to 30 mins by Western blot analysis; assay type: cell-based
Rattus norvegicus [3] = test: Antiarthritic activity in Lewis rat model of complete Freund's adjuvant-induced arthritis assessed as regeneration of glycosaminoglycans at the border between bone and cartilage at 1 nmol/g administered intra-articularly into knee joint measured on third week by Safranin-O staining based histopathological analysis; assay type: functional, organism-based
Rattus norvegicus [4] = test: Antiarthritic activity in Lewis rat model of complete Freund's adjuvant-induced arthritis assessed as reduction in inflammation synovial tissues at 1 nmol/g administered intra-articularly into knee joint after 1 week by Safranin-O staining based histopathological analysis; assay type: functional, organism-based
Rattus norvegicus [5] = test: Antiarthritic activity in Lewis rat model of complete Freund's adjuvant-induced arthritis assessed as reduction in inflammation synovial tissues at 1 nmol/g administered intra-articularly into knee joint after 6 week by Safranin-O staining based histopathological analysis; assay type: functional, organism-based
Toll-like receptor 4 [6] = target: T1, Toll-like receptor 4; test: Antagonist activity at TLR4 in human THP1 cells assessed as reduction in LPS-induced NFkappaB p65 phosphorylation at 50 uM after 15 to 30 mins by Western blot analysis; assay type: cell-based
[7] = target: T2, Toll-like receptor 4 (Mus musculus) (UniProt Q9QUK6); test: Antagonist activity at TLR4 in mouse RAW264.7 cells assessed as reduction in LPS-induced IFNbeta secretion at 5 to 50 uM after 24 hrs by ELISA; assay type: cell-based
T2 sequence (whole entry): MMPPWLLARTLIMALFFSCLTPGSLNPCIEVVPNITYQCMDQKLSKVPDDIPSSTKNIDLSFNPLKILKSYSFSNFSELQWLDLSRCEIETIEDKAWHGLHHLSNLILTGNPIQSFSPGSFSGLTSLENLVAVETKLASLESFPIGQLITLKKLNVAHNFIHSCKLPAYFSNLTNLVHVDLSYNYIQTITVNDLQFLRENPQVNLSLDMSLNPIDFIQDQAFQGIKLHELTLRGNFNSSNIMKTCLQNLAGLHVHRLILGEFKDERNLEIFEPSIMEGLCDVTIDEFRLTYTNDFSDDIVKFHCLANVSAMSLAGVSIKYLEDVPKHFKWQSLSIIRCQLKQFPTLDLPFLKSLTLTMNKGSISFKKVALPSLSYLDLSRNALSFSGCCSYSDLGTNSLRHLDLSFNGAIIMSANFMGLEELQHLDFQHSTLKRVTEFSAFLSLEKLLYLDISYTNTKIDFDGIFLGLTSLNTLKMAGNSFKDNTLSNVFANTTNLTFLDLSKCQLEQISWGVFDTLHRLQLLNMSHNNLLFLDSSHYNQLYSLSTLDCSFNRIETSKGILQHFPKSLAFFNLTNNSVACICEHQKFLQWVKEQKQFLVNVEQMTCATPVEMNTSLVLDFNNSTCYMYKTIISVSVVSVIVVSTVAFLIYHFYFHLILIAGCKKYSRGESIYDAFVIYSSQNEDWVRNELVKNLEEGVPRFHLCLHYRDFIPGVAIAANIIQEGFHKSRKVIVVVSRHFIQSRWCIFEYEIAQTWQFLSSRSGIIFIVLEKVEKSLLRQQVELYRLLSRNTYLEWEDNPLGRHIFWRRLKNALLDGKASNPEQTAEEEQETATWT

Rattus norvegicus [8] = test: Antiarthritic activity in Lewis rat model of complete Freund's adjuvant-induced arthritis assessed as reduction in ankle swelling and edema at 1 nmol/g administered intra-articularly into knee joint after 2 weeks by visual analysis; assay type: functional, organism-based
[9] = target: T2, Toll-like receptor 4 (Mus musculus); test: Antagonist activity at TLR4 in mouse BMDM cells assessed as reduction in LPS-induced IL6 secretion at 20 to 80 uM after 24 hrs by ELISA; assay type: cell-based
[10] = target: T2, Toll-like receptor 4 (Mus musculus); test: Antagonist activity at TLR4 in mouse BMDM cells assessed as reduction in LPS-induced IFNbeta secretion at 20 to 80 uM after 24 hrs by ELISA; assay type: cell-based
TLR2/TLR6 (Homo sapiens) [11] = target: T3, TLR2/TLR6 (Homo sapiens) (UniProt O60603+Q9Y2C9); test: Antagonist activity at TLR2/6 in human PBMC cells assessed as reduction in FSL-1-induced TNFalpha secretion at 20 to 80 uM after 24 hrs by ELISA; assay type: cell-based
[12] = target: T2, Toll-like receptor 4 (Mus musculus); test: Antagonist activity at TLR4 in mouse RAW264.7 cells assessed as reduction in LPS-induced cytosolic ROS level at 80 uM by DCF-DA staining based FACS analysis; assay type: cell-based
[13] = target: T2, Toll-like receptor 4 (Mus musculus); test: Antagonist activity at TLR4 in mouse RAW264.7 cells assessed as reduction in LPS-induced COX2 expression at 80 uM by Western blot analysis; assay type: cell-based
[14] = target: T2, Toll-like receptor 4 (Mus musculus); test: Antagonist activity at TLR4 in mouse RAW264.7 cells assessed as reduction in LPS-induced ERK phosphorylation at 80 uM after 15 to 30 mins by Western blot analysis; assay type: cell-based
[15] = target: T2, Toll-like receptor 4 (Mus musculus); test: Antagonist activity at TLR4 in mouse RAW264.7 cells assessed as reduction in LPS-induced IkappaBalpha cytosolic degradation at 80 uM after 15 to 30 mins by Western blot analysis; assay type: cell-based
TLR2/TLR6 (Mus musculus) = TLR2/TLR6 (Mus musculus) (UniProt Q9QUN7+Q9EPW9); test: Antagonist activity at TLR2/6 in mouse RAW264.7 cells assessed as reduction in FSL-1-induced TNFalpha secretion at 20 to 80 uM after 24 hrs by ELISA; assay type: cell-based
RAW264.7 = test: Antagonist activity at TLR7/8 in mouse RAW264.7 cells assessed as reduction in R848-induced TNFalpha secretion at 20 to 80 uM after 24 hrs by ELISA; assay type: cell-based
Toll-like receptor 4 [16] = target: T1, Toll-like receptor 4; test: Antagonist activity at human TLR4 expressed in HEK-Blue cells assessed as reduction in LPS-induced SEAP activity pre-incubated for 1 hr followed by LPS stimulation and measured after 24 hrs by SEAP assay; assay type: cell-based
TLR2/TLR6 (Homo sapiens) [17] = target: T3, TLR2/TLR6 (Homo sapiens); test: Antagonist activity at TLR2/6 in human PBMC cells assessed as reduction in FSL-1-induced IL6 secretion at 20 to 80 uM after 24 hrs by ELISA; assay type: cell-based
[18] = target: T2, Toll-like receptor 4 (Mus musculus); test: Antagonist activity at TLR4 in mouse RAW264.7 cells assessed as reduction in LPS-induced ATF3 activation at 80 uM after 120 to 240 mins by Western blot analysis; assay type: cell-based
Mus musculus = test: Antiinflammatory activity in C57BL/6J mouse assessed as reduction in LPS-induced TNFalpha secretion at 70 nmol/g, ip pretreated for 1 hr followed by LPS challenge and measured after 2 hrs by ELISA; assay type: functional, organism-based
[19] = target: T2, Toll-like receptor 4 (Mus musculus); test: Binding affinity to TLR4 in mouse RAW264.7 cells assessed as colocalization of TLR4 in plasma membrane at 40 uM preincubated for 1 hr followed by LPS challenge and measured after 30 mins using FITC-labelled compound by Alexafluor-488/Hoechst 33258 staining based immunofluorescence confocal microscopic method; assay type: cell-based
Toll-like receptor 4 [20] = target: T1, Toll-like receptor 4; test: Antagonist activity at TLR4 in human PBMC cells assessed as reduction in LPS-induced p38 phosphorylation at 80 uM after 15 to 30 mins by Western blot analysis; assay type: cell-based

T1 sequence (O00206 whole entry): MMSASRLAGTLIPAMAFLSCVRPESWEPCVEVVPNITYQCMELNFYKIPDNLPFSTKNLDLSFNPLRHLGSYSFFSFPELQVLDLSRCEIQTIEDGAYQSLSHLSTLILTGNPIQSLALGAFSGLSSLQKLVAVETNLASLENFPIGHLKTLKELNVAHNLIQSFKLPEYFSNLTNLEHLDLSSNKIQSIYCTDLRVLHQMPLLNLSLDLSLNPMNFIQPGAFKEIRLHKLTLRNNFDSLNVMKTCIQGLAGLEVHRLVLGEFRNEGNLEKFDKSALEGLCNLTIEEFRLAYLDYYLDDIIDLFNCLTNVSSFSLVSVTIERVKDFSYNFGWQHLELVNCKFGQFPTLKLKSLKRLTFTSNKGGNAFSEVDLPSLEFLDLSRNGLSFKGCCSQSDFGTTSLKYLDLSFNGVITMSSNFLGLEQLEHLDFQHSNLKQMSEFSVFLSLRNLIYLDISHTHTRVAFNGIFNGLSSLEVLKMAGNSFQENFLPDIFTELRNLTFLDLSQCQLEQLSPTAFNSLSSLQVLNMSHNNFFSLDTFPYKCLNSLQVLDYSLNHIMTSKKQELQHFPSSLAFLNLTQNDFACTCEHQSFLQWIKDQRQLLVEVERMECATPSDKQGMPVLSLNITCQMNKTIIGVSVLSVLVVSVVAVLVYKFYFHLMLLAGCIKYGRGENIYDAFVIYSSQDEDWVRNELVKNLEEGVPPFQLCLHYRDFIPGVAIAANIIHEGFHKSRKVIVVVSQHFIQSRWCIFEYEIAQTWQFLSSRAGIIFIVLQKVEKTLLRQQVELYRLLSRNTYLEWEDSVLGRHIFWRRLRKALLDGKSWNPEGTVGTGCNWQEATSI

Activity [1]: Active
Activity (Toll-like receptor 4 [2]): Active
Activity (Toll-like receptor 4 [6]): Active
Activity [7]: Active
Compound: CC[C@H](C)[C@@H]1NC(=O)[C@H](Cc2c[nH]c3ccccc23)NC(=O)[C@H](Cc2c[nH]c3ccccc23)NC(=O)[C@@H](NC(=O)[C@H](CO)NC(=O)[C@H](Cc2ccccc2)NC(=O)[C@@H](NC(=O)CNC(=O)[C@@H](N)CC(C)C)C(C)C)CC(=O)NCCCC[C@@H](C(=O)N[C@@H](CC(C)C)C(=O)N[C@H](C(=O)O)C(C)C)NC1=O (H-LGVFSDWWIKLV-OH; lactam 6-10)
Activity (Rattus norvegicus [3]): Active
Activity (Rattus norvegicus [4]): Active
Activity (Rattus norvegicus [5]): Active
Activity (Rattus norvegicus [8]): Active

Activity [9]: Active
Activity [10]: Active
Activity (TLR2/TLR6 (Homo sapiens) [11]): inactive
Activity [12]: Active
Activity [13]: Active
Activity [14]: Active
Activity [15]: Active
Activity (TLR2/TLR6 (Mus musculus)): inactive
Activity (Toll-like receptor 4 [16]): Dose-dependent effect
Activity (TLR2/TLR6 (Homo sapiens) [17]): inactive
Activity [18]: Active
Activity [19]: Active
Activity (Toll-like receptor 4 [20]): Active
Compound: H-LGVFSSWWIKLV-OH
Activity (RAW264.7): inactive
Activity (Mus musculus): Active
